Measurements: patent US8252832B2, “Kinesin inhibitors as cancer therapeutics” (Novartis AG, priority 2007, dated 2012)

What was measured:
Type in all cases: cell-based
[1] = test system: KB8.5; experiment: CellTiter-Glo proliferation, 72 hours; details: Homo sapiens; Epidermoid, KB8.5, 72 hours
[2] = test system: HT29; experiment: CTG (CellTiter-Glo) screening assay; details: Homo sapiens, HT-29
Excerpt: (§1) Identification of tumor types that are the most sensitive to the KSP inhibitors of the present invention can be accomplished using an unbiased approach that uses several cell-based assays. The assays chosen were as follows: • CellTiter-Glo®. This is an assay designed to measure ATP concentration in a cell culture, and can be correlated to cell number. Briefly CellTiter-Glo® (Promega Corporation) is a homogeneous method using the single CellTiter-Glo® reagent to detect ATP wherein ATP in the assay drives the activity of a thermostable luciferase to create a luminescent signal which can then be measured and correlated with the number of viable cells. Briefly, for adherent cells, 1,000 to 5,000 cells/well were plated in 96-well plates (100 μl/well) and let to adhere for 24 hours before being treated with drug. For non-adherent cells, 1,000 to 10,000 cells/well were plated in 96-well plates (100 μl/well) and immediately treated with drug. Drug dilutions were prepared in DMSO at 1000 times the final concentration. These dilutions were then diluted 1/100 in growth media before being added to the cells (11 μl/well) to achieve the desired final concentration. After 48 h in a 37° C. tissue culture incubator, the plates were processed for the CellTiter-Glo®assay according to the manufacturer's instructions. Protocol for a 72 hour cell proliferation assay: The 72 hour assay was performed the same way as the 48 hour assay except for the following modifications: For adherent cells, 500 to 5,000 cells/well were plated in 96-well plates (90 μl/well cell growth media) and left to adhere for 24 hours before being treated with drug. For non-adherent cells, 1,000 to 10,000 cells/well were plated in 96-well plates (90 μl/well cell growth media) and immediately treated with drug. Data values presented represent the concentration of test compound required for a 50% reduction in growth. • LDH release. The Cytotoxicity Detection KitPLUS (LDH) assay (Roche Diagnostics, Manheim, Germany) measures the amount of LDH released in the media by dying cells; LDH catalyzes the conversion of lactate into pyruvate. The enzymatic reaction is coupled to a chemical reaction that uses a tetrazolium salt to form a formazan that is red and can be detected by its absorbance at 490 nm. This assay measures the amount of cell death after drug treatment. Cells were plated at 10,000 cells/well in 96-well plates (100 μl/well). Adherent cells were let to adhere for 24 hours before being treated with drug, whereas non-adherent cells were immediately treated with drug. Drug dilutions were prepared in DMSO at 1000 times the final concentration. These dilutions were then diluted 1/100 in growth media before being added to the cells (11 μl/well) to achieve the desired final concentration. After 48 h in a 37° C. tissue culture incubator, the plates were processed for the Cytotoxicity Detection KitPLUS (LDH) assay according to the manufacturer's instructions. The media only values were subtracted from all the data points before analysis. Data values presented correspond to the compound concentration wherein LDH output is at half maximal level. • Caspase-Glo® 3/7. The Caspase-Glo® 3/7 Assay (Promega Corporation) is a homogeneous luminescent assay that measures caspase-3/7 activities. The assay provides a proluminescent caspase-3/7 DEVD-aminoluciferin substrate and a thermostable luciferase in a reagent optimized for caspase-3/7 activity, luciferase activity and cell lysis. Adding the single Caspase-Glo® 3/7 Reagent results in cell lysis, followed by caspase cleavage of the substrate. This liberates free aminoluciferin, which is consumed by the luciferase, generating a luminescent signal. The signal is proportional to caspase-3/7 activity. Data values presented correspond to the compound concentration wherein caspase 3/7 activity is at half maximal level.

[3] = test system: Colo-205; experiment: CTG (CellTiter-Glo) screening assay; details: Homo sapiens
Excerpt: as §1

[4] = test system: MV4; 11; experiment: CTG (CellTiter-Glo) screening assay; details: Homo sapiens
Excerpt: as §1

[5] = test system: T47-D; experiment: CTG (CellTiter-Glo) screening assay; details: Homo sapiens, T47D
Excerpt: as §1

CC(C)(C)[C@H](c1nc(-c2cc(F)ccc2F)cn1Cc1ccccc1)N(CC[C@H](N)CF)C(=O)CO [Compound IIa]
GI50 [1]: 500 pM
GI50 ([2]; HT29, 24 h): > 5000 pM
GI50 ([2]; HT29, 48 h): > 5000 pM
GI50 ([2]; HT29, 72 h): 210 pM
GI50 ([3]; Colo-205, 24 h): > 5000 pM
GI50 ([3]; Colo-205, 48 h): 180 pM
GI50 ([3]; Colo-205, 72 h): 190 pM
GI50 ([4]; MV4;11, 24 h): 50 pM
GI50 ([4]; MV4;11, 48 h): 40 pM
GI50 ([4]; MV4;11, 72 h): 40 pM
GI50 ([5]; 24 h): > 5000 pM
GI50 ([5]; 48 h): > 5000 pM
GI50 ([5]; 72 h): 450 pM
